Patent US20250090498A1, “TREATMENT OF PRIMARY CTLA-4 CHECKPOINT RELATED IMMUNODEFICIENCIES” (ADIENNE PHARMA & BIOTECH SA, priority 2023, published 2025)
Entries after “also recorded” stand apart in the source; their conditions may differ. Where two headings read alike, the source gives them in different places.

Key:
AhR [1] = molecular target: T1, AhR (Homo sapiens, UniProt P35869); test: AhR-dependent genes in vitro in cell lines (data not shown); type: cell-based; design: host or cells: unnamed cell lines; details: preliminary
T1 sequence (P35869 11-848): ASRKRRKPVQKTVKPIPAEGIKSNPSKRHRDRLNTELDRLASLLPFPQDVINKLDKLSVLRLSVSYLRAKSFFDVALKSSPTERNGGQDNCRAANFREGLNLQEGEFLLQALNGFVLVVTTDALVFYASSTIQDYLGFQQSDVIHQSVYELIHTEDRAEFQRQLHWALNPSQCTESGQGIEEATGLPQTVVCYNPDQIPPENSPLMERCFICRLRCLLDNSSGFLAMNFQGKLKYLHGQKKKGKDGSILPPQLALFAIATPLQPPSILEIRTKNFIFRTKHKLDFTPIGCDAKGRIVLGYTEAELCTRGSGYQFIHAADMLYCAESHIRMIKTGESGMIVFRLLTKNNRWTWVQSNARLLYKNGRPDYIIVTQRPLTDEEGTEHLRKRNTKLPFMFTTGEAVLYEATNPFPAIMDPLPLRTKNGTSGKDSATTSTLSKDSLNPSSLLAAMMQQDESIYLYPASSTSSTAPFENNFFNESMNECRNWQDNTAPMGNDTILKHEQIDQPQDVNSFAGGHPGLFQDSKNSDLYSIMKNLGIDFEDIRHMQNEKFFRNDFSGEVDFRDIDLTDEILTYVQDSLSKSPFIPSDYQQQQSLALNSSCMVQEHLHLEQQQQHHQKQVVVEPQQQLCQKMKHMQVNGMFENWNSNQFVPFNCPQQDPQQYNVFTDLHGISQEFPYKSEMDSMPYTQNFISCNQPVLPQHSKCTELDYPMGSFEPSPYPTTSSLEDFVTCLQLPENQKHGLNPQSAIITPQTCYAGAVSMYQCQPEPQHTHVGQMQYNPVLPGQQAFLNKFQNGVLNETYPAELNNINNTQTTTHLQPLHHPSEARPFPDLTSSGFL
Description: Specifically, the oxidated form of 3-IAld (indole-3-formic acid), and methylated forms of indole-3-formic acid, were detected following administration of labelled 3-IAld. For example, 1-Methylindole-3-carboxylic acid was detected with the same kinetics of indole-3-formic acid, with peak levels at 30 min (FIGS. 13C and 13D). Few studies have been performed assessing the biological activities of methylindoles and methoxyindoles as aryl hydrocarbon receptor (AhR) activators.

immune-mediated colitis = immune-mediated colitis in Rag1−/− mice infused with CD4+ T cells and treated with anti-CTLA-4 mAb; type: in vivo
Description: Immunodeficient Rag1^−/− mice reconstituted with naïve CD4^+ T cells and treated with anti-CTLA-4 monoclonal antibody. Rag1−/− mice, mice homozygous for the RagltmlMom mutation produce no mature T cells or B cells. Their phenotype can be described as a “non-leaky” immune deficiency. Rag1−/− 8-10 weeks old mice were injected intraperitoneally with 4×10^5 naïve CD4^+ T cells purified from spleens of C57BL/6 mice and treated with anti-CTLA-4 mAb or control IgG the day after T-cell reconstitution and then at days 0, 4, 8, 12, and 16. […] Mice were monitored daily for overall mortality and body weight loss and sacrificed on day 21.

[2] = system: pathology after chronic treatment with anti-CTLA-4 monoclonal antibody; test: chronic anti-CTLA-4 treatment in 16 wk-old Il10−/− mice, without DSS; type: in vivo
Description: Animals were monitored daily for body weight, disease activity index, clinical inspection, inflammatory pathology in the ileum and colon, epithelial barrier function and immunological parameters of inflammation. […] Consistent with the extensive T cells infiltration in different organs observed in CTLA-4 haploinsufficiency (Kuehn et al, 2014; Schubert et al, 2014; […] No lymphocytic infiltration or immunopathology were detected in organs, such as the spleens and kidneys (data not shown).

B16 tumor cells = test: anti-CTLA-4-responsive B16 melanoma model; type: in vivo, C57BL/6 mice
Description: For FIGS. 12A-12E, C57BL/6 mice were subcutaneously injected with B16 tumor cells and administered 100 μg anti-CTLA-4 mAb or isotype control intraperitoneally four times at 3-day intervals up to 16 days. 3-IAld was administered intragastrically every other day. Mice were evaluated for (FIG. 12A) tumor growth, (FIG. 12B) histology (periodic acid-Schiff staining), (FIG. 12C) immunohistochemistry for CD8+ and CD4+ tumor-infiltrating lymphocytes (TIL), (FIG. 12D) number of positive TIL per high-power field, HPF and (FIG. 12E) Cxcl9 and Perforin expression. (FIGS. 12F-12J) C57BL/6 mice were orthotopically injected with LLC cells and administered 200 μg anti-PD-1 mAb or isotype control intraperitoneally five times at 3-day intervals up to 18 days. 3-IAld was administered intragastrically every other day. Mice were evaluated for (FIG. 12F) % survival, (FIG. 12G) lung weight, (FIG. 12H) lung gross pathology, (FIGS. 12I, 12J) CD4+CD25+Foxp3+ cells. Photographs were taken with a high-resolution microscope, ×40 magnification (scale bars, 100 μm). Each in vivo experiment includes three mice per group (nine mice in each experiment). […]
(§1) The potential application of 3-IAld requires that its immunoregulatory activity would not impinge the tumor immunosurveillance. To this purpose, the effect of 3-IAld was assessed in the anti-CTLA-4-responsive B16 melanoma model (Renga et al, 2022).

LLC cells = test: Lewis lung carcinoma (LLC) model with anti-PD-1 antibody; type: in vivo, C57BL/6 mice
Description: For FIGS. 12A-12E, C57BL/6 mice were subcutaneously injected with B16 tumor cells and administered 100 μg anti-CTLA-4 mAb or isotype control intraperitoneally four times at 3-day intervals up to 16 days. 3-IAld was administered intragastrically every other day. Mice were evaluated for (FIG. 12A) tumor growth, (FIG. 12B) histology (periodic acid-Schiff staining), (FIG. 12C) immunohistochemistry for CD8+ and CD4+ tumor-infiltrating lymphocytes (TIL), (FIG. 12D) number of positive TIL per high-power field, HPF and (FIG. 12E) Cxcl9 and Perforin expression. (FIGS. 12F-12J) C57BL/6 mice were orthotopically injected with LLC cells and administered 200 μg anti-PD-1 mAb or isotype control intraperitoneally five times at 3-day intervals up to 18 days. 3-IAld was administered intragastrically every other day. Mice were evaluated for (FIG. 12F) % survival, (FIG. 12G) lung weight, (FIG. 12H) lung gross pathology, (FIGS. 12I, 12J) CD4+CD25+Foxp3+ cells. Photographs were taken with a high-resolution microscope, ×40 magnification (scale bars, 100 μm). Each in vivo experiment includes three mice per group (nine mice in each experiment). Data are represented as mean±SEM. One-way analysis of variance, Bonferroni post hoc test. *P<0.05, **P<0.01, ***P<0.001.
as §1

[3] = toxicology, 3 weeks, H&E tissue pathology in naive C57BL/6 and AhR−/− mice; type: in vivo; details: Eudragit-formulated, intragastrically every other day for 3 weeks, two concentrations
Description: Eudragit-formulated 3-IAld (Puccetti et al, 2018) was given intragastrically every other day, at the doses indicated for 3 weeks to naive C57BL/6 and AhR−/− mice. At the end of treatment, mice were sacrificed, and tissue pathology blindly examined on different organs after Hematoxylin and Eosin (H&E) staining.

AhR [4] = details: cited from earlier work
DSS-induced colitis = details: cited from earlier work

Structure (SMILES)	activation of AhR-dependent genes (AhR [1])	progression of immune-mediated colitis (overall) (immune-mediated colitis; 3-IAld 18 mg/kg)	weight loss (immune-mediated colitis; 3-IAld 18 mg/kg intragastrically every other day, 21 days)	colon histopathology (immune-mediated colitis; 3-IAld 18 mg/kg, day 21)	gross pathology (immune-mediated colitis; 3-IAld 18 mg/kg, day 21)	cytotoxic effects / pathology induced by CTLA-4 blockade (overall) ([2]; 3-IAld, chronic schedule)	CD3+ T cell (lymphocytic) infiltration ([2]; ileum, colon, lung and liver, anti-CD3 staining)	recruitment of CD4+ and CD8+ tumour-infiltrating lymphocytes (B16 tumor cells; 3-IAld with anti-CTLA-4 mAb)	development of antitumor immunity / tumor immunosurveillance (overall) (B16 tumor cells; B16 and LLC models)	therapeutic efficacy of anti-PD-1 antibody (LLC cells; 3-IAld with 200 μg anti-PD-1 mAb)	ability of anti-PD-1 antibody to increase survival (LLC cells; 3-IAld with anti-PD-1 mAb)	ability of anti-PD-1 antibody to reduce the recruitment of Foxp3+CD25+ Treg cells in the lung (LLC cells; 3-IAld with anti-PD-1 mAb)	ability of anti-PD-1 antibody to improve gross pathology (LLC cells; 3-IAld with anti-PD-1 mAb, lung)	ability of anti-PD-1 antibody to decrease tumour growth (LLC cells; 3-IAld with anti-PD-1 mAb, lung weight)	tissue pathology in different organs (H&E) [3]	dose range inducing luciferase activity (AhR [4]; as printed in b215)	dose range inducing luciferase activity (AhR [4]; as printed in b238)	IL-22 production (DSS-induced colitis; intragastric administration, AhR-dependent manner)	therapeutic efficacy in a murine model of dextran-induced colitis (DSS-induced colitis; mouse, in vivo)
Cn1cc(C(=O)O)c2ccccc21 [1-methylindole-3-carboxylic acid, 1-Methyl-1H-indole-3-carboxylic acid]	activated AhR-dependent genes in a dose-dependent manner																		
O=Cc1c[nH]c2ccccc12 [3-IAld, 1H-indole-3-carbaldehyde]		limits progression	reduced	improved	improved	effective; also recorded: protects	significantly reduced; also recorded: reduces lymphocytic infiltration	did not affect	does not interfere	did not interfere	did not prevent	did not prevent	did not prevent	did not prevent	absence of visible tissue pathology	0.1 to 100 mM	0.0001 to 0.1 mM	induced IL-22 production	therapeutic efficacy
